The source of these data is PMC10895652, “Preclinical Evaluation of Novel Positron Emission Tomography (PET) Probes for Imaging Leucine-Rich Repeat Kinase 2 (LRRK2)” (Journal of Medicinal Chemistry, 2024).

SMILES strings stand for the structures.

Format in all cases: in vivo
Series [1] addresses T1, LRRK2 (Mus musculus, UniProt Q5S006).
T1 construct: from tissue; host or cells: brain of living CD-1 mice, i.c.v; LPS or saline
As to the kind of experiment: PET imaging in LPS-injected neuroinflammatory mouse model. Conditions: brain, LPS-injected mice versus sham group (PBS). The method, then: The CD-1 mice were anesthetized and secured in a stereotaxic frame. The skull was exposed and stereotaxic coordinates (−2.6 mm dorsal/ventral, −1.5 mm lateral, and −0.2 mm anterior/posterior from bregma) according to the procedure by Haley and McCormick.[43] The i.c.v. injections of 10 μg (in 2 μL of saline) of LPS and saline (control group) injections were administered using a microsyringe. The behavior of each mouse was characterized and recorded in the form of scores, including appearance, activity, level of consciousness, eyes, respiration rate, and respiration quality. Scores were determined by summing up the individual scores (Figure S10).
The general procedure for PET studies was described previously[35],[41] with minor modification in this work. Briefly, PET scans were carried out by a Genisys 4 PET scanner (Sofie Biosciences, Culver, CA). Mice were kept under anesthesia using 1–2% (v/v) isoflurane during the scan. The radiotracer (ca. 45 μCi/100 μL) was injected into the tail vein via a preinstalled catheter. A dynamic scan in 3D list mode was acquired for 60 min. The PET dynamic images were reconstructed using G4 software (Analysis Tools and System Setup/Diagnostics Tool, Sofie Biosciences). The radioactivity was decay-corrected and expressed as the standardized uptake value: SUV = (radioactivity per mL tissue/injected radioactivity) × body weight.

Series [2] has as its target T2, LRRK2 (Rattus norvegicus, UniProt F1LNJ1).
T2 construct: from tissue; host or cells: rat brain (Sprague-Dawley rats)
As to the kind of experiment: PET imaging in rats with arterial blood sampling (2TCM, VT). The settings on record: compound 3 (1 mg/kg) i.v. prior to tracer injection. As to the method:
(§1) The promising pharmacological, pharmacokinetic, and in vitro autoradiographic data encouraged us to carry out preliminary dynamic PET imaging studies of [^11C]3 and [^18F]4. […] Given the superiority of fluorine-18 such as clean positron emission, low positron range, and relatively long half-life compared with carbon-11, [^18F]4 was subjected to further investigation (Figure 6). A blocking scan was carried out with intravenous administration of compound 3 (1 mg/kg) prior to tracer injection. For both baseline and blocking studies, blood samples were extracted from the artery. Both whole-blood and plasma radioactivity concentrations were evaluated, and radiometabolites were measured in plasma samples by radio high-performance liquid chromatography (HPLC) to generate metabolite-corrected input function (Figure S2). Compartmental analyses with one- and two-tissue compartment models (1TCM and 2TCM) were carried out on regional time–activity curves. […] In the baseline study, VT of various brain regions ranged from 2.2 to 2.9 mL/cm^3, confirming the high binding of the radiotracer.
The general procedure for PET studies was described previously[35],[41] with minor modification in this work. […] The radioactivity was decay-corrected and expressed as the standard uptake value: SUV = (radioactivity per mL tissue/injected radioactivity) × body weight.

Series [3] in a line: Radiometabolite analysis in rat plasma (radio-HPLC). Conditions: rats. As to the method:
as §1

T2 sequence (F1LNJ1 1-2526): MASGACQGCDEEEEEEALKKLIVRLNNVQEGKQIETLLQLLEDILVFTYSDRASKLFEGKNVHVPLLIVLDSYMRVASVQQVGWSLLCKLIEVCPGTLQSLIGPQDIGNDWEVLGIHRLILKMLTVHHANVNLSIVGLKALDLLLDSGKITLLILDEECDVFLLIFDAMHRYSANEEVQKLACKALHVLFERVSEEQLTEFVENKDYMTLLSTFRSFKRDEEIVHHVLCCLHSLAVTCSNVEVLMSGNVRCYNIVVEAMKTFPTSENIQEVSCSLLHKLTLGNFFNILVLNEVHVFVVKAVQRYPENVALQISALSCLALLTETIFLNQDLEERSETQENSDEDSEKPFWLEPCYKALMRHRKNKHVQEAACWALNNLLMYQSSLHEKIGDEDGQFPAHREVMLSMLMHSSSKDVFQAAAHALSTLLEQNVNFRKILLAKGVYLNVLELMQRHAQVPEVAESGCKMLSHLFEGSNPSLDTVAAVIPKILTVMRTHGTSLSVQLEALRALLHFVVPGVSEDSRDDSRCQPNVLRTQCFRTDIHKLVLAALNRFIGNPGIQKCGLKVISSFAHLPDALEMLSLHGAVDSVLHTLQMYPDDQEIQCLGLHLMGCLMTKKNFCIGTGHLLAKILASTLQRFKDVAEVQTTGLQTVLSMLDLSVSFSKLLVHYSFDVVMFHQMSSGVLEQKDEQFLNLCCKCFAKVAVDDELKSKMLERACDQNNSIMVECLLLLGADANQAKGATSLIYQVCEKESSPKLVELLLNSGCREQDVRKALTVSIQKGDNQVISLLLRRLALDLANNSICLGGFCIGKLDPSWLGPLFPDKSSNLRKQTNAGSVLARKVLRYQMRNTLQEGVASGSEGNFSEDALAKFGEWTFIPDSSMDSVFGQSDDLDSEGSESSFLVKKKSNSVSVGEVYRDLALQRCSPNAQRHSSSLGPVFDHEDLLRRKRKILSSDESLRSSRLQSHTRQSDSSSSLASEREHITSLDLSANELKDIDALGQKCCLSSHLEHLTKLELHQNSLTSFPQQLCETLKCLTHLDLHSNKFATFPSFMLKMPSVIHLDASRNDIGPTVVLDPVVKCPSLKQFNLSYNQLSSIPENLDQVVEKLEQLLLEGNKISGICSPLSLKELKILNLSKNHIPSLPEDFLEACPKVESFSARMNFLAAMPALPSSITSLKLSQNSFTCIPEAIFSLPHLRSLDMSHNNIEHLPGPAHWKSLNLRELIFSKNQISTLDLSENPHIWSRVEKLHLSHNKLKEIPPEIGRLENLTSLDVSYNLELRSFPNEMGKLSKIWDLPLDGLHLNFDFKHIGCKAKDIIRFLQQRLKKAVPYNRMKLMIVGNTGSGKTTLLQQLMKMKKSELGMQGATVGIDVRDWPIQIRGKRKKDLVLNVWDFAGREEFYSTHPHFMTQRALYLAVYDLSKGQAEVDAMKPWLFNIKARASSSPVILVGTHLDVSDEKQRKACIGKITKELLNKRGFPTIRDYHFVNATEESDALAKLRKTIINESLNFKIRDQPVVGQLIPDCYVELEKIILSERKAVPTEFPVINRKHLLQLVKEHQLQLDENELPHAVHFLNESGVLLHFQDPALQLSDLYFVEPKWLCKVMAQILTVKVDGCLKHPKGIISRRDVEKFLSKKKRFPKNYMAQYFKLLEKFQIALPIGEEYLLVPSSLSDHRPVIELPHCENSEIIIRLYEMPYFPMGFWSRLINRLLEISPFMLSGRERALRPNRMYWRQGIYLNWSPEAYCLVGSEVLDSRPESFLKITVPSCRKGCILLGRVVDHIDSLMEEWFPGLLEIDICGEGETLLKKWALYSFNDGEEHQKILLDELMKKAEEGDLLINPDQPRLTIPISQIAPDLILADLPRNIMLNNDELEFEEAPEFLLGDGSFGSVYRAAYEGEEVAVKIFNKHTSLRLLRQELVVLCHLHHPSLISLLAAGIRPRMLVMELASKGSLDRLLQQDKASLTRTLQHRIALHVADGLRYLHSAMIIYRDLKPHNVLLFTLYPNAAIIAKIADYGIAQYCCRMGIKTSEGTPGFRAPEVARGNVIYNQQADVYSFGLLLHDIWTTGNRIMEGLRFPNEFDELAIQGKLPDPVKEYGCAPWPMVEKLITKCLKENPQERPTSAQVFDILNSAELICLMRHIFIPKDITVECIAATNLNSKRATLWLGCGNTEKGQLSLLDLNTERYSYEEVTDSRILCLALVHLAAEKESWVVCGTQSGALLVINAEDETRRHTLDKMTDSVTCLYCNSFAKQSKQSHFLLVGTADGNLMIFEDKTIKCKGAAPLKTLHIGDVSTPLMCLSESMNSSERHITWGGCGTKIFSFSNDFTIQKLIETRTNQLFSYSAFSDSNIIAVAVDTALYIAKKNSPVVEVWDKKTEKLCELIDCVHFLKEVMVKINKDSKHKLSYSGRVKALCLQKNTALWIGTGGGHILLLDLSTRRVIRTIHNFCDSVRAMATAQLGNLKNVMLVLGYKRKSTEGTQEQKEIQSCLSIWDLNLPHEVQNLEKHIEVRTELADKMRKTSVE
T1 sequence (Q5S006 whole entry): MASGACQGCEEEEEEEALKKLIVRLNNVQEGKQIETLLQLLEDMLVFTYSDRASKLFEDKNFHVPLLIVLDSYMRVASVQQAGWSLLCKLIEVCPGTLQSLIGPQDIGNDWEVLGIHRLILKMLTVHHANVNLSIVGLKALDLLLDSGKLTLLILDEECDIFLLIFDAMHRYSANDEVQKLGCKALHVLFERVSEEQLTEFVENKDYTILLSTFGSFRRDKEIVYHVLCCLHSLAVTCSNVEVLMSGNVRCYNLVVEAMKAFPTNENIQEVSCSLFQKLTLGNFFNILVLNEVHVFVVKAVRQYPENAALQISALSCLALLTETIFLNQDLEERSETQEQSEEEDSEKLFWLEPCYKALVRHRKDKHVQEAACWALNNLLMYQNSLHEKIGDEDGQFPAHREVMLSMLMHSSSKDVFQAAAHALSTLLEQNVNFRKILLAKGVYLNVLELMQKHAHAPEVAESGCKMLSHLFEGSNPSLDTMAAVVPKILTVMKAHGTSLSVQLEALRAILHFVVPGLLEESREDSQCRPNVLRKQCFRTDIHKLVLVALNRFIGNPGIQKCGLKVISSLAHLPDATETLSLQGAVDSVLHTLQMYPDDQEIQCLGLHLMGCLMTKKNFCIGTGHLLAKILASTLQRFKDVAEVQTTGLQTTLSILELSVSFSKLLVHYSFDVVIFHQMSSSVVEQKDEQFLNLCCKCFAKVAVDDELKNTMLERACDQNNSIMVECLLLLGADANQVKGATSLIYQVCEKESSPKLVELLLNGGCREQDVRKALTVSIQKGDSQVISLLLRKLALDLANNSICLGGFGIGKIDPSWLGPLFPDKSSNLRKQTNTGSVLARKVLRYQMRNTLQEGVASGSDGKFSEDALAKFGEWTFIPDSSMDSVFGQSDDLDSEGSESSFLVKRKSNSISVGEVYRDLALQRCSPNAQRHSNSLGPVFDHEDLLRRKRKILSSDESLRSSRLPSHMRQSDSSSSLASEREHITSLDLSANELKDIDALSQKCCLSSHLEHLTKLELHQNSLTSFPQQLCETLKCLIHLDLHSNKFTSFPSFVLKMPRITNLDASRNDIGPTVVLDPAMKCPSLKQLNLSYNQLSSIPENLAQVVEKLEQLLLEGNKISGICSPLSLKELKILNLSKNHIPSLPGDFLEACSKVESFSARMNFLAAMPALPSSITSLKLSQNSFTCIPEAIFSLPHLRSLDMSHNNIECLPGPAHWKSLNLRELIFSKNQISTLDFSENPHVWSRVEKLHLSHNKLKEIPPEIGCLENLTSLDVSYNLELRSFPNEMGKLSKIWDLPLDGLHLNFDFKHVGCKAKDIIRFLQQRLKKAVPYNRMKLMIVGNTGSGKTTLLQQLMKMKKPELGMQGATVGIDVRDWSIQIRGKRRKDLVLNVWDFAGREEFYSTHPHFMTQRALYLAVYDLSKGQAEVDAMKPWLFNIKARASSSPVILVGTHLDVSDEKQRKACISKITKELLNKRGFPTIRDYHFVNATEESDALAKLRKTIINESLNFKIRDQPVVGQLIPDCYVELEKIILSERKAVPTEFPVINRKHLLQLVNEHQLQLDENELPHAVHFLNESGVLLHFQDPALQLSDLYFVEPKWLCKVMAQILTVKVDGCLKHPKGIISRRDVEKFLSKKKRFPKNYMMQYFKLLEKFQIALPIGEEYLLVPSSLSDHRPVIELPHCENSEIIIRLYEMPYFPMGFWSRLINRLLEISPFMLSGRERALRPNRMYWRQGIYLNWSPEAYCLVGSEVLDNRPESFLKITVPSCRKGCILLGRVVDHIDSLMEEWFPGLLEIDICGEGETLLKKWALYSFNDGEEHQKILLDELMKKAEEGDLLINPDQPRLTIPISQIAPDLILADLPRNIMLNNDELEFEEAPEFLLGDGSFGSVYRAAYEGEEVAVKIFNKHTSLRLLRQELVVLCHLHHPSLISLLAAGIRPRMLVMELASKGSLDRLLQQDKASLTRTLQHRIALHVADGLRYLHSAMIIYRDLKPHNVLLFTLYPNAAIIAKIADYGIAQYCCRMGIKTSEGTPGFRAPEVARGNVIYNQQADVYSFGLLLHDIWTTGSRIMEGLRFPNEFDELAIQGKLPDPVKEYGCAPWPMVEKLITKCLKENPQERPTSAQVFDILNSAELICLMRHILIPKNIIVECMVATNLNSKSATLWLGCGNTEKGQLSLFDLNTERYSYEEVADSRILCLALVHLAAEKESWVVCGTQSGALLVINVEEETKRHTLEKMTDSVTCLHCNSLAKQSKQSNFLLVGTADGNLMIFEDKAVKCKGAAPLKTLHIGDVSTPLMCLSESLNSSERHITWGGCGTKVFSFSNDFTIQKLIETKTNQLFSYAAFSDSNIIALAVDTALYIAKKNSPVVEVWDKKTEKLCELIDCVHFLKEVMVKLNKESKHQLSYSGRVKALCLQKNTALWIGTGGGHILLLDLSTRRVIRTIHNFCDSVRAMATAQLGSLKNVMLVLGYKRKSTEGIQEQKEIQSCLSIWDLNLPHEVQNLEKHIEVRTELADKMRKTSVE

`N#Cc1cccc(-c2c[nH]c3ncnc(N4CCOCC4)c23)c1[18F]` [[^18F]4]: the “increase of radioactivity based on the AUCs” value on LRRK2 [1] was 28%. For the same compound, the “uptake in various brain regions after pretreatment of compound 3” value at LRRK2 [2] is “significant decrease of uptake”. The entries for the “parent fraction in plasma” value in series [3] (30 min post tracer administration) and in series [3] (60 min post tracer administration) were 38% and 23%, respectively.
